Patent US9488914B2, “Fluorine-containing sulfonic acid salt, fluorine-containing sulfonic acid salt resin, resist composition, and pattern forming method using same” (Central Glass Company, Limited, priority 2012, dated 2016)

Assay: Solubility of polymerizable fluorine-containing sulfonic acid onium salts in PGMEA
Details: amount (g) of polymerizable monomer dissolved in 100 g of PGMEA

## C=C(COCC(F)(F)S(=O)(=O)O)C(=O)OC1CCOC1=O (stereo not shown) [PAG-1, Triphenylsulfonium 2-[2-(2-oxotetrahydrofuran-3-yloxycarbonyl)-2-methyleneethoxy]-1,1-difluoroethanesulfonate]
  Solubility: 38 g/100 g

## C=C(COCCC(F)(F)C(F)(F)S(=O)(=O)[O-])C(=O)OC1CC2CC1CC2CC(OC(C)=O)(C(F)(F)F)C(F)(F)F.c1ccc(-[s+]2c3ccccc3c3ccccc32)cc1 (stereo not shown) [PAG-2, Phenyldibenzothiophenium 4-[2-(3,3,3-trifluoro-2-acetyloxy-2-(trifluoromethyl)propyl)bicyclo[2.2.1]hepta-2-yloxycarbonyl-2-methyleneethoxy]-1,1,2,2-tetrafluorobutanesulfonate]
  Solubility: 50 g/100 g

## C=C(COCC(F)(F)S(=O)(=O)O)C(=O)OC1CC(C(O)(C(F)(F)F)C(F)(F)F)CC(C(O)(C(F)(F)F)C(F)(F)F)C1 (stereo not shown) [PAG-3, Diphenyl-p-tolylsulfonium 2-[2-(3,5-bis(hexafluoro-2-hydroxypropan-2-yl)cyclohexyloxycarbonyl)-2-methyleneethoxy]-1,1-difluoroethanesulfonate]
  Solubility: 55 g/100 g

## C=C(COCCC(F)(F)C(F)(F)S(=O)(=O)O)C(=O)Oc1ccc2sc(=O)oc2c1 [PAG-8]
  Solubility: 42 g/100 g

## C=C(COC(CCCC)C(F)(F)S(=O)(=O)[O-])C(=O)Oc1ccc(C(O)(C(F)(F)F)C(F)(F)F)cc1.Cc1ccc([S+](c2ccc(C)cc2)c2ccc(C)cc2)cc1 (stereo not shown) [PAG-11, Tri-p-tolylsulfonium 2-[4-(2,2,2-trifluoro-1-hydroxy-1-(trifluoromethyl)ethylphenoxycarbonyl)-2-methylene-ethoxy]-1,1-difluorohexanesulfonate]
  Solubility: 45 g/100 g

## C=C(COCCCC(F)(F)S(=O)(=O)O)C(=O)OC1CC2CC1C1COC(=O)C21 (stereo not shown) [PAG-15, [(4-trifluoromethyl)phenyl]diphenylsulfonium 4-(4-oxa-tricyclo[5.2.1.0(2,6)]decan-3-on-8-yloxycarbonyl-2-methylene-ethoxy)-1,1-difluorobutanesulfonate]
  Solubility: 42 g/100 g

## Triphenylsulfonium 2-[2-(1,1,1-trifluoro-2-hydroxy-2-(trifluoromethyl)penta-5-yloxycarbonyl)-2-methyleneethoxy]-1,1-difluoroethanesulfonate [PAG-13]
  Solubility: 47 g/100 g
